{
  "source": "paper PMC12333940",
  "about": "“A prometabolite strategy inhibits cardiometabolic disease in an ApoE^–/– murine model of atherosclerosis” (JCI Insight, 2025)",
  "key": {"[1]": {"assay": "LC-MS/MS of free butyrate in solution of fresh and aged SerBut", "description": "To investigate stability, we repeated the experiment with SerBut in FBS-supplemented complete media stored for 1 month at 37°C (Figure 1B).\n(B) LC-MS/MS analysis of free butyrate in solution of aged SerBut (incubated at 37°C in FBS-supplemented media for 1 month) and freshly dissolved SerBut and NaBut. (C) NF-κB activity of RAW Blue reporter cells upon treatment with the indicated concentrations of SerBut or NaBut for 24 hours followed by stimulation with 200 ng/mL LPS for 6 hours. (D–J) RAW 264.7 cells treated for 24 hours with the indicated concentrations of SerBut or NaBut followed by stimulation with 200 ng/mL LPS for 6 hours. (D–E) Mean fluorescence intensity (MFI) of iNOS^+ or CD80^+ RAW 264.7 cells analyzed by flow cytometry. (F–J) Cytokine concentrations in the cell culture supernatant of RAW 264.7 cells. “x” indicates untreated group. In A, n = 3 per group representing technical replicates. In B, n = 3 freshly prepared samples per 2 distinct experiments pooled for aged SerBut and NaBut groups, while fresh the SerBut group represents a single experiment. One sample in the aged SerBut group and 2 samples in the NaBut group were lost due to filtering malfunctions or LC-MS/MS autosampling malfunctions. In C, n = 6 technical replicates. Data represent mean ± SEM. […] In A, 2-way ANOVA was performed.\nSamples were prepared and derivatized as described previously ([28]). Stock solutions were prepared in water/acetonitrile (ACN) (1:1 v/v): 3-nitrophenylhydrazine (NPH), and 1-ethyl-3-(3-dimethylaminopropyl)carbodiimide (EDC) (in 1% pyridine). The internal standard, 4-methylvaleric acid, was added. Samples were mixed with NPH and EDC stocks at a 1:1:1 volume ratio. The mixture was heated in a heating block at 60°C for 30 minutes. Samples were filtered through 0.22 μm filters and stored at 4°C before analysis.\nBoth derivatized butyrate-NPH and 4-methylvaleric-NPH were detected in negative mode. Column: Thermo Fisher Scientific C18 4.6 × 50 mm, 1.8 μm particle size, at room temperature. Mobile phase A: water with 0.1% v/v formic acid. Mobile phase B: ACN with 0.1% v/v formic acid. Injection volume: 5.0 μL. Flow rate: 0.5 mL/min. […] The MS conditions were optimized using pure butyrate-NPH or 4-methylvaleric-NPH at 1 mM. […] The ratio between MRM of butyrate and 4-methylvaleric acid was used to quantify butyrate concentration."}, "[2]": {"system": "RAW 264.7 macrophages", "assay": "LEGENDPlex cytokines in supernatant of LPS-stimulated RAW 264.7", "assay_type": "cell-based", "set-up": "TNFa (Legendplex) / MCP-1 (Legendplex) / IL-10 (Legendplex) / IL-6 (Legendplex): unit not given here", "description": "RAW 264.7 (ATCC, TIB-71) macrophages were cultured at 37°C and 5% CO2 in DMEM (Gibco) supplemented with 1 mM HEPES, 1 mM sodium pyruvate, 10% FBS, and penicillin/streptomycin. Cells were plated in round-bottom 96-well plates at 100,000 cells per well and incubated with different concentrations of either NaBut or SerBut (0.15–12 mM) for 24 hours. Cells were then rinsed with PBS and then stimulated with 200 ng/mL LPS in media for 6 hours. The cell culture supernatant was collected and analyzed by LEGENDPlex to analyze the concentrations of cytokines (BioLegend). Cell phenotype was analyzed using flow cytometry (Cytek Aurora)."}, "[3]": {"system": "ApoE^–/– mice on an HFD", "assay": "Immunofluorescent staining of the aortic root (CD68, iNOS, DAPI)", "assay_type": "in vivo, mouse", "set-up": "Immunoflourescence Quantification #Cells/Area / Immunoflourescence Quantification #iNOS+/Area: unit not given beside the values", "excerpt": "SerBut water was pH adjusted using 10 M NaOH to a final pH of 7.4. […] After 6 weeks, mice were euthanized. […] The liver was harvested and part was homogenized in tissue protein extraction reagent buffer (Invitrogen, 78510) supplemented with protease inhibitor mini tablets (Thermo Fisher Scientific, PIA32955) for Western blotting and qPCR. […] Aortic root sections were brought to room temperature and rehydrated with PBS and permeabilized with 10% dimethyl sulfoxide (DMSO). […] Sections were washed again in PBS with 0.1% Tween 20 and then PBS and mounted with ProLong Gold Antifade Mountant with DAPI (Invitrogen). Slides were imaged with a DMI8 inverted fluorescence microscope (Leica Microsystems) and analyzed with QuPath (v0.5.0)."}, "[4]": {"system": "ApoE^–/– mice on an HFD", "assay": "Blood chemical analysis of plasma", "assay_type": "in vivo, mouse", "set-up": "Lipase / ALT / Altherogenic Lipids (Chol-HDL) / HDL-C / LDL-C: unit not given here", "description": "SerBut water was pH adjusted using 10 M NaOH to a final pH of 7.4. […] After 6 weeks, mice were euthanized. […] The liver was harvested and part was homogenized in tissue protein extraction reagent buffer (Invitrogen, 78510) supplemented with protease inhibitor mini tablets (Thermo Fisher Scientific, PIA32955) for Western blotting and qPCR. […] Blood chemical analysis was performed on an Alfa […] Chemistry Analyzer. Reagent kits from Alfa Wasserman were used according to manufacturer's instructions to analyze plasma: lipase (catalog SA1045), HDL-C (catalog SA2038, LDL-C (catalog SA1040), AST (catalog SA1053), ALT (catalog SA1052). A LEGENDPlex was utilized to analyze the concentrations of inflammatory cytokines (BioLegend)."}, "[5]": {"details": "aortic root, individual samples"}, "[6]": {"details": "Blood Chemistry, 6wk, individual mice, experiments 1 and 2"}},
  "note": "Several values for one entry are separate records, joined by “and”; a condition that tells them apart may be missing. Equal entries are not always repeated.",
  "data": [
    {"smiles": "CCCC(=O)OC[C@H](N)C(=O)O", "note": "[SerBut, O-butyryl-L-serine]", "values": [
      {"measurement": "relative concentration of free butyrate on storage", "setting": "[1]; FBS-supplemented complete media, 1 month at 37°C", "result": "did not change"},
      {"measurement": "Butyrate Release by LCMS-MS (free butyrate)", "setting": "[1]; aged: 37°C in FBS-supplemented media for 1 month, listed as Aged SerBut", "result": "0.457 and 0.4771 and 0.4543 and 0.3155 and 0.3079"},
      {"measurement": "share of sample that was free butyrate", "setting": "[1]; at the time of measurement", "result": "approximately 10%"},
      {"measurement": "Butyrate Release by LCMS-MS (free butyrate)", "setting": "[1]; freshly dissolved", "result": "0.483 and 0.4832 and 0.4596"},
      {"measurement": "TNFa (Legendplex)", "setting": "[2]; 1.3 mM 24 h, then LPS 6 h", "result": "4133.05 and 4500 and 3675.16 and 3268.68 and 3195.27 and 3191.26"},
      {"measurement": "TNFa (Legendplex)", "setting": "[2]; 4 mM 24 h, then LPS 6 h", "result": "3513.15 and 3456.91 and 3852.76 and 3385.25 and 3103.2 and 3863.3"},
      {"measurement": "TNFa (Legendplex)", "setting": "[2]; 12 mM 24 h, then 200 ng/mL LPS 6 h", "result": "1963.6 and 2002.31 and 2185.35 and 1388.16 and 2487.75 and 2408.88"},
      {"measurement": "production of IL-6, MCP-1 and GM-CSF", "setting": "[2]; 12 mM, as effectively as 1.3 mM NaBut", "result": "suppressed NF-κB–regulated production of proinflammatory cytokines"},
      {"measurement": "IL-10", "setting": "[2]; compared with LPS-stimulated controls", "result": "trending increase"},
      {"measurement": "total numbers of CD68^+ macrophages in plaque", "setting": "[3]; 6 weeks, compared to NaBut-treated groups", "result": "reduced"},
      {"measurement": "Immunoflourescence Quantification #CD68", "setting": "[3]; [5]", "result": "253 and 777 and 160 and 609 and 328 and 484 and 543 and 320 and 469 and 759 and 789 and 546 and 570 and 595 and 155 and 500"},
      {"measurement": "Immunoflourescence Quantification #Cells", "setting": "[3]; [5]", "result": "361 and 838 and 219 and 933 and 390 and 980 and 918 and 425 and 532 and 1028 and 894 and 662 and 629 and 763 and 225 and 709"},
      {"measurement": "Immunoflourescence Quantification #Cells/Area", "setting": "[3]; [5]", "result": "0.003013 and 0.004253 and 0.004189 and 0.003573 and 0.00395 and 0.004233 and 0.003714 and 0.004358 and 0.004407 and 0.003725 and 0.004412 and 0.003975 and 0.003527 and 0.00449 and 0.003521 and 0.004264"},
      {"measurement": "Immunoflourescence Quantification #iNOS+", "setting": "[3]; [5]", "result": "313 and 90 and 377 and 151 and 158 and 199 and 404 and 180 and 226 and 262 and 184 and 96 and 292"},
      {"measurement": "Immunoflourescence Quantification #iNOS+/Area", "setting": "[3]; [5]", "result": "0.001588 and 0.001722 and 0.001444 and 0.001529 and 0.00162 and 0.001649 and 0.001464 and 0.0008883 and 0.001357 and 0.001469 and 0.001083 and 0.001502 and 0.001756"},
      {"measurement": "Immunoflourescence Quantification CD68+/Area", "setting": "[3]; [5]", "result": "0.002112 and 0.003943 and 0.003061 and 0.002332 and 0.003322 and 0.00209 and 0.002197 and 0.003281 and 0.003885 and 0.00275 and 0.003894 and 0.003278 and 0.003196 and 0.003502 and 0.002425 and 0.003007"},
      {"measurement": "Immunoflourescence Quantification CD68+iNOS+", "setting": "[3]; [5]", "result": "308 and 87 and 302 and 146 and 132 and 181 and 347 and 153 and 200 and 252 and 157 and 71 and 253"},
      {"measurement": "Immunoflourescence Quantification CD68+iNOS+/Area", "setting": "[3]; [5]", "result": "0.001563 and 0.001664 and 0.001157 and 0.001479 and 0.001354 and 0.001499 and 0.001257 and 0.0007551 and 0.001201 and 0.001413 and 0.000924 and 0.001111 and 0.001521"},
      {"measurement": "lipase in the plasma", "setting": "[4]; 6 weeks", "result": "no effect"},
      {"measurement": "total cholesterol or triglycerides in the plasma", "setting": "[4]; 6 weeks", "result": "Neither SerBut nor NaBut influenced"},
      {"measurement": "LDL-C as a fraction of total cholesterol", "setting": "[4]; 6 weeks, 150 mM in drinking water, HFD", "result": "significantly reduced"},
      {"measurement": "ratio of HDL to total cholesterol", "setting": "[4]; 6 weeks, compared with NaBut treatment", "result": "significantly increased"},
      {"measurement": "plasma ALT and AST", "setting": "[4]; 6 weeks, compared with both water control and NaBut groups", "result": "significantly reduced"},
      {"measurement": "Altherogenic Lipids (Chol-HDL)", "setting": "[4]; [6]", "result": "948 and 1048 and 1026 and 1018 and 1032 and 880 and 848 and 784 and 1074 and 722 and 776 and 780 and 800 and 768 and 1080 and 736 and 882"},
      {"measurement": "HDL-C", "setting": "[4]; [6]", "result": "38 and 52 and 46 and 44 and 48 and 54 and 56 and 42"},
      {"measurement": "LDL-C", "setting": "[4]; Blood Chemistry, individual mice, experiments 1 and 2", "result": "320 and 324 and 382 and 332 and 336 and 378 and 454 and 290 and 460 and 258 and 354 and 282 and 292 and 318 and 416 and 268 and 238"},
      {"measurement": "ALT", "setting": "[4]; plasma at 6 weeks, 150 mM in drinking water ad libitum with HFD, individual mice", "result": "30.92 and 18.78 and 25.96 and 23.5 and 26.22 and 26.76 and 26.18 and 26.36 and 22.68"}
    ]}
  ]
}
